Reference: patent US11787809B2 (NIHON NOHYAKU CO., LTD., priority 2015, dated 2023)
Where two headings read alike, the source gives them in different places.

Columns and labels:
Plutella xylostella = test: Insecticidal test on Plutella xylostella (dip of Chinese cabbage seedlings with laid eggs); format: in vivo; conditions: 144 h
From the text: Insecticidal Test on Plutella xylostella
Adults of Plutella xylostella were released onto Chinese cabbage seedlings and allowed to lay eggs thereon. At 2 days after the release of the adults, the Chinese cabbage seedlings with laid eggs were dipped for about 30 seconds in agrochemical dispersions diluted to 500 ppm, each of which contained a different kind of oxime group-containing condensed heterocyclic compound represented by the general formula (1) of the present invention as an active ingredient. After air-dried, the seedlings were kept in a thermostatic chamber at 25° C. At 6 days after the dip treatment, the number of hatched larvae per plot was counted, the mortality rate was calculated according to the formula shown below, and the insecticidal effect was evaluated according to the criteria of Test Example 1. This test was conducted in triplicate using 10 adults of Plutella xylostella per plot. Corrected mortality rate (%)=100×(Number of hatched larvae in a non-treatment plot−Number of hatched larvae in a treatment plot)/Number of hatched larvae in a non-treatment plot [Math. 3]

Laodelphax striatella = test: Insecticidal test on Laodelphax striatella (rice seedling dip); format: in vivo; conditions: Laodelphax striatellus, 192 h, read-out: insecticidal effect (corrected mortality rate)
From the text: Insecticidal Test on Laodelphax striatella
The oxime group-containing condensed heterocyclic compounds represented by the general formula (1) of the present invention or salts thereof were separately dispersed in water and diluted to 500 ppm, and rice plant seedlings (variety: Nihonbare) were dipped in the agrochemical dispersions for 30 seconds. After air-dried, each seedling was put into a separate glass test tube and inoculated with ten 3rd-instar larvae of Laodelphax striatella, and then the glass test tubes were capped with cotton plugs. At 8 days after the inoculation, the numbers of surviving larvae and dead larvae were counted, the corrected mortality rate was calculated according to the formula shown below, and the insecticidal effect was evaluated according to the criteria of Test Example 1. Corrected mortality rate (%)=100×(Survival rate in a non-treatment plot−Survival rate in a treatment plot)/Survival rate in a non-treatment plot [Math. 2]

[1] = 500 ppm, Chinese cabbage seedlings with laid eggs dipped about 30 seconds, 25° C., 6 days after dip treatment, criteria of Test Example 1, read-out: insecticidal effect (corrected mortality rate, hatched larvae)
[2] = 500 ppm, rice seedlings (Nihonbare) dipped 30 seconds, ten 3rd-instar larvae, 8 days after inoculation, criteria of Test Example 1

Structure (SMILES)	mortality at 500 ppm (Plutella xylostella; [1])	mortality at 500 ppm (Laodelphax striatella; [2])	mortality at 500 ppm (Plutella xylostella; in Brassica rapa, read-out: insecticidal effect (corrected mortality rate, hatched larvae))	mortality at 500 ppm (Laodelphax striatella; in Oryza sativa)
CCS(=O)(=O)c1cc(C=NO)cnc1-c1nc2cc(C(F)(F)F)cnc2n1C [Compound 2-3]	100%	100%	–	–
CCS(=O)(=O)c1cc(C=NOCC(F)(F)F)cnc1-c1nc2cc(C(F)(F)F)cnc2n1C [Compound 2-33]	100%	100%	–	–
CCS(=O)(=O)c1ccc(C=NO)nc1-c1nc2cc(C(F)(F)F)nnc2n1C [Compound 3-1]	–	–	100%	100%
CCS(=O)(=O)c1ccc(C=NOCC(F)(F)F)nc1-c1nc2cc(C(F)(F)F)nnc2n1C [Compound 3-2]	100%	100%	–	–
CCS(=O)(=O)c1cc(/C=N/O)cnc1-c1nc2cc(SC(F)(F)F)ccc2o1 [Compound 4-11]	100%	100%	–	–
CCS(=O)(=O)c1cc(/C=N/OCC(F)(F)F)cnc1-c1nc2cc(SC(F)(F)F)ccc2o1 [Compound 4-12]	100%	100%	–	–
